This passage reports IC50 results from patent publication US9376426B2, “Pyridazinone derivatives” (MERCK PATENT GMBH, priority 2009, dated 2016).

Molecules are shown by their SMILES. Structures can show the parent of a compound that is named as a salt.

Assay [1] addresses T1, Met kinase (Homo sapiens, UniProt P08581). In words: Met kinase inhibition (cell). The format is cell-based.
Assay [2] deals with T1, Met kinase. The assay is described as follows: Met kinase inhibition, flashplate method (enzyme). The format is biochemical. On the set-up: 6His (N); purchased Upstate 14-526; host or cells: Sf21 insect cells (S. frugiperda), baculovirus. The text has this: Measurement of Met Kinase Activity
According to the manufacturer's data (Met, active, upstate, catalogue No. 14-526), Met kinase is expressed for the purposes of protein production in insect cells (Sf21; S. frugiperda) and subsequent affinity-chromatographic purification as “N-terminal 6His-tagged” recombinant human protein in a baculovirus expression vector.
Flashplate Method (Met Kinase)
The test plates used are 96-well Flashplate® microtitre plates from Perkin Elmer (Cat. No. SMP200). The components of the kinase reaction described below are pipetted into the assay plate. The Met kinase and the substrate poly Ala-Glu-Lys-Tyr, (pAGLT, 6:2:5:1), are incubated for 3 hrs at room temperature with radioactively labelled ^33P-ATP in the presence and absence of test substances in a total volume of 100 μl. The reaction is terminated using 150 μl of a 60 mM EDTA solution. After incubation for a further 30 min at room temperature, the supernatants are filtered off with suction, and the wells are washed three times with 200 μl of 0.9% NaCl solution each time. The measurement of the bound radioactivity is carried out by means of a scintillation measuring instrument (Topcount NXT, Perkin-Elmer).
The full value used is the inhibitor-free kinase reaction. This should be approximately in the range 6000-9000 cpm. The pharmacological zero value used is staurosporin in a final concentration of 0.1 mM. The inhibitory values (IC50) are determined using the RS1_MTS program.
Kinase reaction conditions per well:
10 μl of substance to be tested in assay buffer with 10% of DMSO
10 μl of ATP (final concentration 1 μM cold, 0.35 μCi of ^33P-ATP)
50 μl of Met kinase/substrate mixture in assay buffer;
• (10 ng of enzyme/well, 50 ng of pAGLT/well) • Solutions used: • Assay buffer: • 50 mM HEPES • 3 mM magnesium chloride • 3 μM sodium orthovanadate • 3 mM manganese(II) chloride • 1 mM dithiothreitol (DTT) • pH=7.5 (to be set using sodium hydroxide) • Stop solution: • 60 mM Titriplex III (EDTA) • ^33P-ATP: Perkin-Elmer; • Met kinase: Upstate, Cat. No. 14-526, Stock 1 μg/10 μl; spec. activity 954 U/mg; • Poly-Ala-Glu-Lys-Tyr, 6:2:5:1:Sigma Cat. No. P1152 In-Vivo Tests Experimental Procedure: […]

T1 sequence (P08581 25-1390): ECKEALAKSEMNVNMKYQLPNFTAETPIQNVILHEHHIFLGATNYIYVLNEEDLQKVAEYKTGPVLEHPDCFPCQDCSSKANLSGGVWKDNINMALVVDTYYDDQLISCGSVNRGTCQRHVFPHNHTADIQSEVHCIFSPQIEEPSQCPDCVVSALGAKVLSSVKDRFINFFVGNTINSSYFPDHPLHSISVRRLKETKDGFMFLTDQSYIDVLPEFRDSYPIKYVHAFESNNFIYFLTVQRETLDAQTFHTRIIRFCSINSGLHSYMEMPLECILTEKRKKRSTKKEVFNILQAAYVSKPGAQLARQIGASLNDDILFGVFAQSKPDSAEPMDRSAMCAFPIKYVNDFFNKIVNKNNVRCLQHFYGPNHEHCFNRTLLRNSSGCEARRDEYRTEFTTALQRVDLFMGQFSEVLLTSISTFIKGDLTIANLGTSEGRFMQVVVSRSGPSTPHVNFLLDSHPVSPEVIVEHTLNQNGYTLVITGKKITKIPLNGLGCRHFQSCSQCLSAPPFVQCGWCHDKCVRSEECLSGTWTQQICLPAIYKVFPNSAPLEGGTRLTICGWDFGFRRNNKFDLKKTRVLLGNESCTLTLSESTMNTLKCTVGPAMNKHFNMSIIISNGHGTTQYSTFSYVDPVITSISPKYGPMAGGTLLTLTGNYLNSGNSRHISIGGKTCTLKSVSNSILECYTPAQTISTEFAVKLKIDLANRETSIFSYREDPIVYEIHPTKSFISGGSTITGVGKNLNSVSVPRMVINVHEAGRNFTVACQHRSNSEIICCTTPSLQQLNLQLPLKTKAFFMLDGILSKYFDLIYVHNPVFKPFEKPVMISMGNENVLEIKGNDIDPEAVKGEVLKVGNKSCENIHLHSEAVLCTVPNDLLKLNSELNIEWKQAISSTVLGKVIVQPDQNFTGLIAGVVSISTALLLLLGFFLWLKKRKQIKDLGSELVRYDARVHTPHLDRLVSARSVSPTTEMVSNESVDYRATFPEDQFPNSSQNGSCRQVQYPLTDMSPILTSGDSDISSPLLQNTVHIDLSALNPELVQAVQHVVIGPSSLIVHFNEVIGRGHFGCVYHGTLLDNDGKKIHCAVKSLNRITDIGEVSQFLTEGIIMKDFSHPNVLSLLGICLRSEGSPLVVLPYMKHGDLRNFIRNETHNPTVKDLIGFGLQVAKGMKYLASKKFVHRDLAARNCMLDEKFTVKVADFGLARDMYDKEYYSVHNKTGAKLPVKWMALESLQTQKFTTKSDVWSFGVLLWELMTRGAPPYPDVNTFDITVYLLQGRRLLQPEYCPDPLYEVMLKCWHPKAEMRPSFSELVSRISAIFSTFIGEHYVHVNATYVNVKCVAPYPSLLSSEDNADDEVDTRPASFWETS

A word on the IC50: it is the concentration that gives 50% inhibition. Higher therefore signals a need for much substance. In the case of `CN(C)CCCOc1cnc(-c2cccc(Cn3nc(Nc4ccccc4)ccc3=O)c2)nc1` [Compound A1, 2-{3-[5-(3-dimethylaminopropoxy)pyrimidin-2-yl]benzyl}-6-phenylamino-2H-pyridazin-3-one], the values for the IC50 against Met kinase [1] and at Met kinase [2] were 100 to 10000 nM and 1 to 100 nM, respectively.
The corresponding values for `CN(C)CCCOc1cnc(-c2cccc(Cn3nc(C(N)=O)ccc3=O)c2)nc1` [Compound A8, 1-{3-[5-(3-dimethylaminopropoxy)pyrimidin-2-yl]benzyl}-6-oxo-1,6-dihydropyridazine-3-carboxamide] are 100 to 10000 nM and 100 to 10000 nM.
The corresponding values for `O=c1ccc(Oc2ccccc2)nn1Cc1cccc(-c2ncc(-c3cnn(CCN4CCCC4)c3)cn2)c1` [Compound A3, 6-phenoxy-2-(3-{5-[1-(2-pyrrolidin-1-ylethyl)-1H-pyrazol-4-yl]pyrimidin-2-yl}benzyl)-2H-pyridazin-3-one] are 100 to 10000 nM and 1 to 100 nM.
On to `O=c1ccc(Nc2ccccc2)nn1Cc1cccc(-c2ncc(-c3cnn(C4CCNCC4)c3)cn2)c1` [Compound A2, 6-phenylamino-2-{3-[5-(1-piperidin-4-yl-1H-pyrazol-4-yl)pyrimidin-2-yl]benzyl}-2H-pyridazin-3-one], for which the IC50 on Met kinase [1] is 100 to 10000 nM; on Met kinase [2] it was 1 to 100 nM.
The like results for `O=c1ccc(Oc2ccccc2)nn1Cc1cccc(-c2ncc(-c3cnn(C4CCNCC4)c3)cn2)c1` [Compound A4, 6-phenoxy-2-{3-[5-(1-piperidin-4-yl-1H-pyrazol-4-yl)pyrimidin-2-yl]benzyl}-2H-pyridazin-3-one hydrochloride] were, in that order, 100 to 10000 nM and 100 to 10000 nM.
